Test results published in publication PMC6345779, “Hypoculoside, a sphingoid base-like compound from Acremonium disrupts the membrane integrity of yeast cells” (Scientific Reports, 2019).

What was measured:
[1] = test system: Wild type strain (BY4743); assay: Rescue of myriocin-induced growth inhibition in yeast; assay type: cell-based, Saccharomyces cerevisiae
Description: Myriocin is an inhibitor of Serine palmitoyltransferase (SPT), which catalyzes the first step in the synthesis of sphingolipid biosynthesis. Addition of PHS or DHS can rescue inhibition caused by myriocin[28]. We tested whether hypoculoside can rescue the toxicity of myriocin–treated cells.
Wild type strain (BY4743) was grown in YPD medium containing different concentrations of myriocin and either phytosphingosine (PHS) or dihydrosphingosine (DHS) or hypoculoside (HYP) at the indicated concentrations. Normalized growth at the different concentrations after 24 hours of incubation at 30 °C is plotted for the various cultures.

[2] = test system: vps35Δ, pep8Δ, vps20Δ, vps27Δ and vps36Δ strains; assay: Single-mutant sensitivity growth assay of deletion strains in YPD medium; assay type: cell-based, Saccharomyces cerevisiae
Description: Figure 3 Homozygous profiling of hypoculoside in Saccharomyces cerevisiae. (A) logFC (Fitness Coefficient) was plotted against P-value for the 3702 mutants that were analyzed by HOP. The more negative the logFC value of a mutant, more sensitive is the mutant to hypoculoside. Mutants that have logFC < −0.5 and P-value < 0.05 are indicated by red dots and the remaining strains are indicated as blue dots. For the sake of clarity, gene names of only a subset of the top hits are indicated in the plot. (B) Wild type strain BY4743 and 24 deletion strains that were sensitive to hypoculoside in the HOP assay, were grown in the YPD medium in the presence of either DMSO or hypoculoside at different concentrations (0, 0.6, 1.3, 2.7 and 5.5 µM). Normalized growth at the different concentrations of hypoculoside tested after 24 hours of incubation at 30 °C is plotted for each strain.
To test the validity of our HOP data, we first identified 336 ‘hypoculoside-sensitive’ mutants (Supplementary Table S1) that had at least a 1.4-fold inhibitory effect on their growth rate (i.e. logFC ≤ −0.5) with a P-value ≤ 0.05. From the list of 336 mutants, we chose 24 mutants that represent different Gene Ontology categories (see below) and tested their sensitivity to hypoculoside. Eighteen of the total 24 mutants were sensitive to hypoculoside confirming the HOP data (Fig. 3B). We also tested mutants that were predicted to be resistant to hypoculoside (positive logFC ≥ 0.5 and P-value ≤ 0.05). But none of them were resistant to hypoculoside in comparison to wild type strain in the single-mutant sensitivity assays (data not shown).
Figure 5 Structure-activity studies of hypoculoside. (A) Wild type strain (BY4743), vps35Δ, pep8Δ, vps20Δ, vps27Δ and vps36Δ strains were grown in YPD medium in the presence of hypoculoside or hypoculine at the indicated concentrations. Normalized growth at the different concentrations of hypoculoside and hypoculine tested after 24 hours of incubation at 30 °C is plotted for each strain. (B) Wild type strain (BY4743), vps35Δ, pep8Δ, vps20Δ, vps27Δ and vps36Δ strains were grown in YPD medium in the presence of hypoculoside or phytosphingosine or dihydrosphingosine at the indicated concentrations. Normalized growth at the different concentrations of hypoculoside, phytosphingosine and dihydrosphingosine tested after 24 hours of incubation at 30 °C is plotted for each strain.

CC(N)C(O)CCCCCCCCCCCCCCCCCCC(O)C(C)OC1OC(CO)C(O)C(O)C1O (centres unmarked) [hypoculoside, Hypoculoside]
rescue of myriocin-induced inhibition ([1]; hypoculoside at the concentrations of Fig. 6): did not rescue
combined effect with myriocin on growth ([1]; total effect = sum of individual effects): additive effect
inhibition of growth of the vps35, pep8, vps20, vps27 and vps36 mutants ([2]; 5.5 µM, YPD, 24 hours at 30 °C): completely inhibited
concentration that inhibited the growth of the vps35, pep8, vps20, vps27 and vps36 mutants ([2]; YPD, 24 hours at 30 °C (Fig. 5A)): 5.5 µM
toxicity to vesicular trafficking mutants in comparison to the wild type strain ([2]; several vesicular trafficking mutants): two-fold more toxic
